Key:
[1] = upper aqueous solution pH attained without precipitating zinc hydroxide; format: physicochemical; conditions: 1:3 molar ratio of zinc to ligand
[2] = binding affinity of one ligand with free zinc ion; recorded at pH 7.4
Method: The log Ks1 is the logarithm of the primary Stability Constant which is the binding affinity for a particular ligand with a particular metal ion, in the present invention zinc. […] Since [L] is a function of the solution pH, due to the required initial deprotonation of the ligand, as a reference point, the log Ks1 values described were recorded at pH 7.4.

| SMILES | pH at which zinc hydroxide precipitates [1] | pH at which zinc hydroxide precipitates ([1]; listed as acetate) | zinc-ligand (log Ks1) [2] |
| --- | --- | --- | --- |
| CC(=O)O [acetic acid] | 5.82 | below 6 |  |
| NCC(=O)O [glycine] | >10 |  | 5.16 |

Reference: patent US20090202453A1, “Oral Composition” (Hindustan Lever Limited, priority 2004, published 2009)
